Data reported in patent US20210254272A1, “TEXTILES HAVING ANTIMICROBIAL PROPERTIES” (Livinguard AG, priority 2015, published 2021).

Experiment: Leaching test: 100 g fabric soaked in 10 liters stagnant distilled water, 3 days (72 hours)
Format: physicochemical
Conditions: for Leaching of active ingredients / Leaching Test-Leaching of active ingredients: pad process; for Leaching of active ingredients: cured 180° C. 2 min; for Leaching Test-Leaching of active ingredients: 2 min
Method: (§1) The test procedure for leaching was as follows: 100 g (grams) of fabric as well as control fabrics were soaked in 10 liters of stagnant distilled water in a closed wide mouth jar. After 3 days (72 hours), the water samples were tested for leached substances as per standard analytical methods.
as §1, with “methods. A weight of 100 g fabric was chosen because in the preferred embodiment of the water filter as described further below, each filter comprises a strip of fabric with 210 g/m^2, 3 meters long and 0.16 meters wide, which corresponds to 100 g of fabric.” for “methods.”

For `CCCCCCCCCCCCCCCCCC[N+](C)(C)CCC[Si](OC)(OC)OC` [Organosilane, dimethyloctadecyl[3-(trimethoxysilyl)propyl] ammonium chloride], the “Leaching of active ingredients (in ppm)” value (exhaust 80° C., 1% o.w.f, 60 min, curing dwell time at 190° C. (title): 3.0 min) was 34 ppm, the “Leaching of active ingredients (in ppm)” value (exhaust 80° C., 60 min, dosage 1% o.w.f (test up to 5% o.w.f)) was 3 ppm and the “Leaching of active ingredients (in ppm)” value (exhaust 80° C., 60 min, dosage 2% o.w.f) was 22 ppm. For the same compound, the “Leaching of active ingredients (in ppm)” value (exhaust 80° C., 60 min, dosage 3% o.w.f) was 38 ppm, the “Leaching of active ingredients (in ppm)” value (exhaust 80° C., 60 min, dosage 4% o.w.f) was 52 ppm and the “Leaching of active ingredients (in ppm)” value (exhaust 80° C., 60 min, dosage 5% o.w.f) was 72 ppm. For the same compound, the “Leaching of active ingredients (in ppm)” value (exhaust 80 ° C., solution dosage 1% o.w.f, process time 10 min) was 40 ppm, the “Leaching of active ingredients (in ppm)” value (exhaust 80 ° C., solution dosage 1% o.w.f, process time 20 min) was 29 ppm and the “Leaching of active ingredients (in ppm)” value (exhaust 80 ° C., solution dosage 1% o.w.f, process time 30 min) was 25 ppm. The “Leaching of active ingredients (in ppm)” value (exhaust 80 ° C., solution dosage 1% o.w.f, process time 40 min) was 18 ppm, the “Leaching of active ingredients (in ppm)” value (exhaust 80 ° C., solution dosage 1% o.w.f, process time 50 min) was 15 ppm and the “Leaching of active ingredients (in ppm)” value (exhaust 80 ° C., solution dosage 1% o.w.f, process time 55 min) was 6 ppm. For the same compound, the “Leaching of active ingredients (in ppm)” value (exhaust 80 ° C., solution dosage 1% o.w.f, process time 60 min) was 2 ppm, the “Leaching of active ingredients (in ppm)” value (exhaust 80 ° C., solution dosage 1% o.w.f, process time 70 min) was 3 ppm and the “Leaching of active ingredients (in ppm)” value (exhaust 80 ° C., solution dosage 1% o.w.f, process time 80 min) was 4 ppm. For the same compound, the “Leaching of active ingredients (in ppm)” value (exhaust 80 ° C., solution dosage 1% o.w.f, process time 90 min) was 7 ppm, the “limit on the quantity of the agent that can be adhered to the textile in a non-leaching or substantially non-leaching manner” value (from Experimental examples I.1 and I.4) was “about 0.7 % o.w.f” and the “Leaching of active ingredients” value (mixture 1 gm/lit each) was 11 ppm. For the same compound, the “Leaching of active ingredients” value (mixture 1 gm/lit each, after Washing) was 0.2 ppm, the “Leaching of active ingredients” value (mixture 5 gm/lit each) was 22 ppm and the “Leaching of active ingredients” value (mixture 5 gm/lit each, after Washing) was 0.5 ppm. For the same compound, the “Leaching of active ingredients” value (mixture 10 gm/lit each) was 32 ppm, the “Leaching of active ingredients” value (mixture 10 gm/lit each, after Washing) was 0.7 ppm and the “Leaching Test-Leaching of active ingredients” value (from here on “Leaching Test-Leaching”) (single agent 5 gm/lit, curing 120° C.) was 8 ppm. The “Leaching Test-Leaching” value (single agent 5 gm/lit, curing 140° C.) was 6 ppm, the “Leaching Test-Leaching” value (single agent 5 gm/lit, curing 150° C.) was 5 ppm and the “Leaching Test-Leaching” value (single agent 5 gm/lit, curing 160° C.) was 3 ppm. For the same compound, the “Leaching Test-Leaching” value (single agent 5 gm/lit, curing 180° C.) was 1 ppm, the “Leaching Test-Leaching” value (single agent 10 gm/lit, curing 120° C.) was 17 ppm and the “Leaching Test-Leaching” value (single agent 10 gm/lit, curing 140° C.) was 13 ppm. For the same compound, the “Leaching Test-Leaching” value (single agent 10 gm/lit, curing 150° C.) was 10 ppm, the “Leaching Test-Leaching” value (single agent 10 gm/lit, curing 160° C.) was 9 ppm and the “Leaching Test-Leaching” value (single agent 10 gm/lit, curing 180° C.) was 1 ppm. The “Leaching of active ingredient (in ppm)” value (solution dosage 0.10% o.w.f, exhaust temperature 40° C., process time 60 min) was 0 ppm, the “Leaching of active ingredient (in ppm)” value (solution dosage 0.10% o.w.f, exhaust temperature 60° C., process time 60 min) was 0 ppm and the “Leaching of active ingredient (in ppm)” value (solution dosage 0.10% o.w.f, exhaust temperature 65° C., process time 60 min) was 0 ppm. The “Leaching of active ingredient (in ppm)” value (solution dosage 0.10% o.w.f, exhaust temperature 70° C., process time 60 min) was 0 ppm, the “Leaching of active ingredient (in ppm)” value (solution dosage 0.10% o.w.f, exhaust temperature 75° C., process time 60 min) was 0 ppm and the “Leaching of active ingredient (in ppm)” value (solution dosage 0.10% o.w.f, exhaust temperature 80° C., process time 60 min) was 0 ppm. For the same compound, the “Leaching of active ingredient (in ppm)” value (solution dosage 0.10% o.w.f, exhaust temperature 85° C., process time 60 min) was 1 ppm, the “Leaching of active ingredient (in ppm)” value (solution dosage 0.10% o.w.f, exhaust temperature 90° C., process time 60 min) was 2 ppm and the “Leaching of active ingredient (in ppm)” value (solution dosage 0.10% o.w.f, exhaust temperature 95° C., process time 60 min) was 3 ppm. The “Leaching of active ingredient (in ppm)” value (solution dosage 0.20% o.w.f, exhaust temperature 40° C., process time 60 min) was 0 ppm, the “Leaching of active ingredient (in ppm)” value (solution dosage 0.20% o.w.f, exhaust temperature 60° C., process time 60 min) was 0 ppm and the “Leaching of active ingredient (in ppm)” value (solution dosage 0.20% o.w.f, exhaust temperature 65° C., process time 60 min) was 0 ppm. For the same compound, the “Leaching of active ingredient (in ppm)” value (solution dosage 0.20% o.w.f, exhaust temperature 70° C., process time 60 min) was 0 ppm, the “Leaching of active ingredient (in ppm)” value (solution dosage 0.20% o.w.f, exhaust temperature 75° C., process time 60 min) was 0 ppm and the “Leaching of active ingredient (in ppm)” value (solution dosage 0.20% o.w.f, exhaust temperature 80° C., process time 60 min) was 0 ppm. For the same compound, the “Leaching of active ingredient (in ppm)” value (solution dosage 0.20% o.w.f, exhaust temperature 85° C., process time 60 min) was 3 ppm, the “Leaching of active ingredient (in ppm)” value (solution dosage 0.20% o.w.f, exhaust temperature 90° C., process time 60 min) was 3 ppm and the “Leaching of active ingredient (in ppm)” value (solution dosage 0.20% o.w.f, exhaust temperature 95° C., process time 60 min) was 4 ppm. For the same compound, the “Leaching of active ingredient (in ppm)” value (solution dosage 0.50% o.w.f, exhaust temperature 40° C., process time 60 min) was 0 ppm, the “Leaching of active ingredient (in ppm)” value (solution dosage 0.50% o.w.f, exhaust temperature 60° C., process time 60 min) was 2 ppm and the “Leaching of active ingredient (in ppm)” value (solution dosage 0.50% o.w.f, exhaust temperature 65° C., process time 60 min) was 1 ppm. For the same compound, the “Leaching of active ingredient (in ppm)” value (solution dosage 0.50% o.w.f, exhaust temperature 70° C., process time 60 min) was 1 ppm, the “Leaching of active ingredient (in ppm)” value (solution dosage 0.50% o.w.f, exhaust temperature 75° C., process time 60 min) was 1 ppm and the “Leaching of active ingredient (in ppm)” value (solution dosage 0.50% o.w.f, exhaust temperature 80° C., process time 60 min) was 1 ppm. For the same compound, the “Leaching of active ingredient (in ppm)” value (solution dosage 0.50% o.w.f, exhaust temperature 85° C., process time 60 min) was 4 ppm, the “Leaching of active ingredient (in ppm)” value (solution dosage 0.50% o.w.f, exhaust temperature 90° C., process time 60 min) was 5 ppm and the “Leaching of active ingredient (in ppm)” value (solution dosage 0.50% o.w.f, exhaust temperature 95° C., process time 60 min) was 6 ppm. The “Leaching of active ingredient (in ppm)” value (solution dosage 0.80% o.w.f, exhaust temperature 40° C., process time 60 min) was 0 ppm, the “Leaching of active ingredient (in ppm)” value (solution dosage 0.80% o.w.f, exhaust temperature 60° C., process time 60 min) was 3 ppm and the “Leaching of active ingredient (in ppm)” value (solution dosage 0.80% o.w.f, exhaust temperature 65° C., process time 60 min) was 3 ppm. For the same compound, the “Leaching of active ingredient (in ppm)” value (solution dosage 0.80% o.w.f, exhaust temperature 70° C., process time 60 min) was 2 ppm, the “Leaching of active ingredient (in ppm)” value (solution dosage 0.80% o.w.f, exhaust temperature 75° C., process time 60 min) was 1 ppm and the “Leaching of active ingredient (in ppm)” value (solution dosage 0.80% o.w.f, exhaust temperature 80° C., process time 60 min) was 1 ppm. For the same compound, the “Leaching of active ingredient (in ppm)” value (solution dosage 0.80% o.w.f, exhaust temperature 85° C., process time 60 min) was 5 ppm, the “Leaching of active ingredient (in ppm)” value (solution dosage 0.80% o.w.f, exhaust temperature 90° C., process time 60 min) was 6 ppm and the “Leaching of active ingredient (in ppm)” value (solution dosage 0.80% o.w.f, exhaust temperature 95° C., process time 60 min) was 8 ppm. For the same compound, the “Leaching of active ingredient (in ppm)” value (solution dosage 1.00% o.w.f, exhaust temperature 40° C., process time 60 min) was 0 ppm, the “Leaching of active ingredient (in ppm)” value (solution dosage 1.00% o.w.f, exhaust temperature 60° C., process time 60 min) was 6 ppm and the “Leaching of active ingredient (in ppm)” value (solution dosage 1.00% o.w.f, exhaust temperature 65° C., process time 60 min) was 6 ppm. The “Leaching of active ingredient (in ppm)” value (solution dosage 1.00% o.w.f, exhaust temperature 70° C., process time 60 min) was 3 ppm, the “Leaching of active ingredient (in ppm)” value (solution dosage 1.00% o.w.f, exhaust temperature 75° C., process time 60 min) was 2 ppm and the “Leaching of active ingredient (in ppm)” value (solution dosage 1.00% o.w.f, exhaust temperature 80° C., process time 60 min) was 1 ppm. The “Leaching of active ingredient (in ppm)” value (solution dosage 1.00% o.w.f, exhaust temperature 85° C., process time 60 min) was 7 ppm, the “Leaching of active ingredient (in ppm)” value (solution dosage 1.00% o.w.f, exhaust temperature 90° C., process time 60 min) was 9 ppm and the “Leaching of active ingredient (in ppm)” value (solution dosage 1.00% o.w.f, exhaust temperature 95° C., process time 60 min) was 10 ppm.
